Values of other authors, collected in patent US7317127B2, “Process for the optical resolution and recycling of tomoxetine” (Teva Pharmaceutical Fine Chemicals S.r.l, priority 2004, dated 2008).

Conditions: as disclosed in U.S. Pat. No. 4,018,895, EP 0 052 492, EP 0 721 777

CNCC[C@@H](Oc1ccccc1C)c1ccccc1 [Atomoxetine, (R)(−)-N-methyl-3-(2-methylphenoxy)-3-phenylpropylamine]
effectiveness relative to the (+)-enantiomer (versus (S)-(+)-tomoxetine): about nine times more effective than the (+)-enantiomer
effectiveness relative to the racemic mixture (versus racemic tomoxetine): about twice as effective as the racemic mixture
